# Experimental data from the supplement of paper PMC10307832.
# Experiments:
# Experiment in all cases: relative viability (nuclei count vs DMSO), 5 days (fraction); higher = more cells survive
# [1] = compound: C1CSC2=C(C(=O)N1)SC3=C2C=C(C=C3)O [kb NB 142-70] + CC(C)C[C@H](NC(=O)[C@H](Cc1ccccc1)NC(=O)c1cnccn1)B(O)O [Bortezomib] (partner 0.002 µM)
# Summary of the method: (§1)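 The day after seeding in 1536-well plates, lung cancer cell lines were treated by pin tool with a single drug, or with a fixed anchor-drug dose together with five library-drug doses (not always all listed) in √10 steps. After 5 days, a combined fix-and-stain solution (final 0.05% Triton X-100, 1% formaldehyde, 1 ug/ml Hoechst) was added. Nuclei counted on 4× images gave relative viability as treated counts over vehicle counts, reported as the median of duplicate plates.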
# [2] = compound: C1CSC2=C(C(=O)N1)SC3=C2C=C(C=C3)O [kb NB 142-70] + CS(=O)(=O)CCNCc1ccc(-c2ccc3ncnc(Nc4ccc(OCc5cccc(F)c5)c(Cl)c4)c3c2)o1 [Lapatinib] (partner 2 µM)
# Summary of the method: as §1
# [3] = compound: C1CSC2=C(C(=O)N1)SC3=C2C=C(C=C3)O [kb NB 142-70] + Cc1cc(Nc2cc(N3CCN(C)CC3)nc(Sc3ccc(NC(=O)C4CC4)cc3)n2)n[nH]1 [Tozasertib] (partner 0.1 µM)
# Summary of the method: as §1
# [4] = compound: C1CSC2=C(C(=O)N1)SC3=C2C=C(C=C3)O [kb NB 142-70] + O=C(c1cc(Cc2n[nH]c(=O)c3ccccc23)ccc1F)N1CCN(C(=O)C2CC2)CC1 [Olaparib] (partner 8 µM)
# Summary of the method: as §1
# [5] = compound: NCC(=O)Nc1ccc(-n2nc(C(F)(F)F)cc2-c2ccc3c(ccc4ccccc43)c2)cc1 + C[C@@H](Oc1cc(-c2cnn(C3CCNCC3)c2)cnc1N)c1c(Cl)ccc(F)c1Cl [Crizotinib] (partner 1 µM)
# Summary of the method: as §1
# [6] = compound: C1CSC2=C(C(=O)N1)SC3=C2C=C(C=C3)O [kb NB 142-70] + NC(=O)Nc1cc(-c2cccc(F)c2)sc1C(=O)N[C@H]1CCCNC1 [AZD7762] (partner 0.2 µM)
# Summary of the method: as §1
Cell Line,relative viability ([1]; first compound 0.1 µM),relative viability ([1]; first compound 1 µM),relative viability ([1]; first compound 3.162 µM),relative viability ([2]; first compound 0.1 µM),relative viability ([2]; first compound 1 µM),relative viability ([2]; first compound 3.162 µM),relative viability ([3]; first compound 0.1 µM),relative viability ([3]; first compound 1 µM),relative viability ([3]; first compound 3.162 µM),relative viability ([4]; first compound 0.1 µM),relative viability ([4]; first compound 1 µM),relative viability ([4]; first compound 3.162 µM),relative viability ([5]; first compound 0.02 µM),relative viability ([5]; first compound 0.06325 µM),relative viability ([5]; first compound 0.2 µM),relative viability ([5]; first compound 0.6325 µM),relative viability ([5]; first compound 2 µM),relative viability ([6]; first compound 0.1 µM),relative viability ([6]; first compound 1 µM),relative viability ([6]; first compound 3.162 µM)
COR-L 105,0.871,0.828,0.903,0.382,0.427,0.361,0.319,0.287,0.255,0.82,0.637,0.726,0.873,0.765,0.803,0.845,1.06,–,–,–
LK-2,–,–,–,0.802,0.734,0.536,0.168,0.167,0.189,0.822,0.551,0.323,0.247,0.234,0.232,0.236,0.244,0.308,0.319,0.329
NCI-H2023,1.09,1.02,0.668,0.809,0.758,0.486,0.367,0.358,0.276,0.51,0.504,0.312,0.737,0.751,0.619,0.703,0.702,–,–,–
NCI-H1944,–,–,–,0.865,0.827,0.936,0.244,0.244,0.27,0.434,0.414,0.482,1.04,1.05,1.11,1.06,1.13,0.492,0.514,0.6
NCI-H1793,–,–,–,0.57,0.749,0.861,0.377,0.346,0.197,0.88,1.02,0.508,–,–,–,–,–,0.6,0.667,0.615
NCI-H520,0.52,0.541,0.277,0.826,0.848,0.464,0.45,0.517,0.37,0.377,0.35,0.228,0.787,1.09,0.889,0.687,0.694,–,–,–
A549,–,–,–,0.979,0.928,0.428,–,–,–,0.305,0.363,0.155,0.762,0.755,0.774,0.767,0.826,–,–,–
NCI-H358,–,–,–,0.45,0.396,0.161,0.109,0.0809,0.077,0.531,0.489,0.297,0.622,0.557,0.572,0.56,0.761,0.437,0.44,0.295
NCI-H1563,0.921,0.84,0.956,0.969,0.889,0.944,–,–,–,–,–,–,0.887,0.91,0.881,0.835,0.997,–,–,–
NCI-H1395,–,–,–,1.23,1.14,0.816,0.724,0.784,0.729,0.45,0.492,0.43,–,–,–,–,–,0.4,0.428,0.501
NCI-H2009,1.09,1.05,0.638,0.952,1.03,0.678,0.75,0.649,0.48,0.721,0.724,0.611,1.06,1.03,1.07,1.09,1.04,–,–,–
NCI-H522,–,–,–,–,–,–,0.521,0.565,0.61,0.69,0.587,0.509,–,–,–,–,–,0.959,0.753,0.746
IA-LM,0.765,1.06,0.647,0.771,0.95,0.787,–,–,–,0.841,0.771,0.807,0.775,0.573,1.02,0.797,0.742,–,–,–
SK-LU-1,1.19,1.05,0.839,0.865,0.802,0.527,0.339,0.282,0.182,0.423,0.396,0.271,0.854,0.949,1.11,0.831,1.03,–,–,–
NCI-H1703,0.255,0.361,0.209,1.1,1.08,1.31,–,–,–,0.47,0.387,0.455,0.593,0.657,0.924,0.621,0.951,0.125,0.134,0.134
NCI-H441,0.323,0.793,0.307,–,–,–,0.663,0.581,0.302,0.631,0.533,0.22,1.08,0.666,0.73,0.6,0.749,1.06,1.23,0.863
LCLC-103H,1.17,1.09,1.07,–,–,–,0.472,0.524,0.417,0.751,0.749,0.847,1.16,1.01,1.1,1.02,0.977,0.766,0.782,0.894
SW 900,–,–,–,–,–,–,0.608,0.472,0.407,0.906,1.14,0.789,–,–,–,–,–,0.663,0.758,0.879
